Data: patent US11390625B2, “Aryl-phosphorus-oxygen compound as EGFR kinase inhibitor” (Chia Tai Tianqing Pharmaceutical Group Co., Ltd., priority 2017, dated 2022)

Tests used:
[1] = Plasma, tumor and lung exposure in mice of the Ba/F3 CDX efficacy experiment; format: in vivo; conditions: mouse, 15.0 mg/kg/day oral
Experimental: On Day 14 after administration to the groups for the efficacy experiment, the plasma was collected from the mice by submandibular blood collection before last administration and 2 hours after last administration, and the plasma samples were collected from the mice at 1 h, 4 h, 8 h and 24 h after administration. About 100 ul of blood was collected each time, placed in an anticoagulation tube, and centrifuged at 8000 rpm for 7 min, to collect plasma, which was stored at −80° C.

[2] = test system: PC9 (EGFR-C797S/T790M/del19); conditions: combination with panitumumab or cetuximab; Nature Communications 8:14768, 2017; cited from earlier work
[3] = target: EGFR (Δ19del/T790M/C797S) (Homo sapiens, UniProt P00533, C797S/T790M, form not given); assay: Enzyme activity experiment (1): EGFR (Δ19del/T790M/C797S) enzyme inhibition; format: biochemical; conditions: read-out: EGFR (Δ19del/T790M/C797S) IC50
Experimental: 1) 10 μL of the compounds to be tested and reference compounds diluted to 10 mM were taken into an Echo LDV plate, which were diluted according to the compound profile with Echo.
1) 1×enzyme reaction buffer was prepared: 1× enzyme buffer, 5 mM MgCl2, 1 mM DTT (dithiothreitol), water.
2) A mixed solution of 10 nM enzyme (final concentration of 5 nM) and 2 μM substrate (final concentration of 1 μM) and a solution containing the substrate alone were prepared with the diluted enzyme reaction buffer.
3) 5 μL of the substrate was added into A1-H1, J24-P24 (the number of the well position), and 5 μL of the mixture of the enzyme and substrate was added into the remaining wells.
4) Centrifugation was performed at 1000 rpm at 23° C. for 30 s.
5) Incubation was performed at 23° C. for 15 min.
7) Centrifugation was performed at 1000 rpm at 23° C. for 30 s.
8) Incubation was performed at 23° C. for 60 min.
9) 10 μL of 250 nM TK Antibody-Crypate (a final concentration of 125 nM) and 1×D2 (a final concentration ½ time) prepared with Detection buffer were added.
10) Centrifugation was performed at 1000 rpm at 23° C. for 30 s.
11) Incubation was performed at 23° C. for 60 min.
12) The data was read with Envision, and the ratio was calculated to obtain the IC50 of the compound for inhibiting the enzyme activity.

A431 cells (EGFR WT) = assay: Cell antiproliferation experiment (1), A431 cells, CellTiter Glo; format: cell-based; conditions: Homo sapiens, A-431, 72 h, read-out: anti-proliferation effect on cells A431 EGFR WT IC50
Experimental: 1) Cell Culture and Passage
(1) A431 medium: 88% DMEM+10% fetal bovine serum+1% L-glutamine+1% double-antibody
(2) A431 cells were isolated and passaged every 3-4 days, wherein the number of the cells for 3-day passage was 5e6 cells per T75 culture flask, and the number of the cells for 4-day passage was 3e6 cells per T75 culture flask.
2) Day 1: Preparation of Cell Plate
(1) Phosphate buffer, trypsin, and a culture medium were placed in a water bath at 37° C. to preheat.
(2) The original medium was removed from the cell culture flask and washed once with 6 mL of PBS.
(3) 5 mL of phosphate buffer was pipetted into the culture flask to rinse the cells (passage 17), and then the liquid was discarded.
(4) The cell culture flask was added with 3.5 mL of trypsin, and shaken gently, trypsin was removed after fully contact with the cells, and then the culture flask was placed in an incubator containing 5% CO2 at 37° C. for about 1 minute;
(5) The cells were resuspended in 10 mL cell culture medium, and about 0.6 mL of cell suspension was take out for counting (ViCell XR);
(6) The cell suspension was diluted with the medium to the cell density of 5e4 cells per ml, which was required for plating (cell concentration: 2500 cells per well);
(7) 100 μL of phosphate buffer solution was added to each well around the cell plate, while 50 μL of the cell suspension was added to other wells, and the plate was incubated overnight in a incubator containing 5% CO2 at 37° C.
(1) 9 μL of the compound (concentration: 1 mM) was added into a shallow well plate for Echo.
(2) The shallow well plate was centrifuged at 1000 rpm for 10 s and the cell plate was removed from the incubator.
(3) According to the layout of the microplate, the compounds was diluted with a three-fold concentration gradient using Echo, each compound was diluted to 10 concentration gradients and 250 nL of the diluted compounds was respectively added to the cell plate, and then the cell plate was returned to the incubator and further incubated for 3 days.
4) Day 5: Adding CTG and Reading the Plate
(1) After incubation for 72 h, 25 μL of CellTiter Glo was added to each well of the cell plate, followed by shaking the plate for 10 min in the dark.
(2) The plate was read on Envision.
Data analysis: By computer fitting, the corresponding concentration of the compound at 50% inhibition rate was read as the IC50 of the compound for inhibiting cell activity.

[4] = test system: Ba/F3 (EGFR Δ19del/T790M/C797S) cells; assay: Anti-proliferation experiment on cells (2), Ba/F3 (EGFR Δ19del/T790M/C797S); format: cell-based; conditions: Ba/F3 EGFR, 72 h; Ba/F3 cells, 3 days; read-out: anti-proliferation effect on cells Ba/F3(Δ19del/T790M/C797S) IC50
Experimental: The compounds ware transferred to a 384-well plate, with 125 nL of compound per well. […] After 3 days, 25 μL of detection reagent was added. The plate was incubated at room temperature for 10 minutes and then read with Envision.

[5] = test system: pEGFR Ba/F3 (EGFR Δ19del/T790M/C797S) cells; assay: Cell phosphorylation inhibition experiment, pEGFR Ba/F3 (EGFR Δ19del/T790M/C797S); format: cell-based; conditions: Ba/F3 EGFR; Ba/F3 cells, EGF stimulated; read-out: Effect on cellular EGFR phosphorylation Ba/F3(Δ19del/T790M/C797S) IC50
Experimental: The test compounds and reference compounds were diluted with 100% DMSO to 10 mM or 1 mM, and then a gradient dilution was performed by using Echo, 150 nL per well, with a three-fold concentration gradient and a ten-point dose response curve. The final concentration of the compounds was 100 μM or 10 μM. The suspension cells was centrifuged at 1000 rp for 5 minutes, suspend in Hanks' balanced salt solution, and added to a 384-well plate containing the compounds at 10 L/120K/well (the cell density of 1.2×10^7), followed by centrifugation at 1200 rpm for 30 s and incubation at 37° C. for 30 min. 5 μL of EGF (which has been diluted with 0.1% BSA Hanks' balanced salt solution) was added to each well, in which the final concentration of EGF was 1 μM. The plate was centrifuged at 1200 rpm for 30 s and incubated at 37° C. for 20 min. 5 μL of 4× lysis buffer containing blocking solution was added to each well, and then the plate was centrifuged at 1200 rpm for 30 s, and incubated at 37° C. for 30 min.

[6] = test system: L858R/T790M/C797S mutations model; conditions: combined with EGFR monoclonal antibody such as cetuximab; Nature 534, 129-132, 2016; cited from earlier work

Chain of EGFR (Δ19del/T790M/C797S) (P00533 25-1210 T790M/C797S limits assumed, form open): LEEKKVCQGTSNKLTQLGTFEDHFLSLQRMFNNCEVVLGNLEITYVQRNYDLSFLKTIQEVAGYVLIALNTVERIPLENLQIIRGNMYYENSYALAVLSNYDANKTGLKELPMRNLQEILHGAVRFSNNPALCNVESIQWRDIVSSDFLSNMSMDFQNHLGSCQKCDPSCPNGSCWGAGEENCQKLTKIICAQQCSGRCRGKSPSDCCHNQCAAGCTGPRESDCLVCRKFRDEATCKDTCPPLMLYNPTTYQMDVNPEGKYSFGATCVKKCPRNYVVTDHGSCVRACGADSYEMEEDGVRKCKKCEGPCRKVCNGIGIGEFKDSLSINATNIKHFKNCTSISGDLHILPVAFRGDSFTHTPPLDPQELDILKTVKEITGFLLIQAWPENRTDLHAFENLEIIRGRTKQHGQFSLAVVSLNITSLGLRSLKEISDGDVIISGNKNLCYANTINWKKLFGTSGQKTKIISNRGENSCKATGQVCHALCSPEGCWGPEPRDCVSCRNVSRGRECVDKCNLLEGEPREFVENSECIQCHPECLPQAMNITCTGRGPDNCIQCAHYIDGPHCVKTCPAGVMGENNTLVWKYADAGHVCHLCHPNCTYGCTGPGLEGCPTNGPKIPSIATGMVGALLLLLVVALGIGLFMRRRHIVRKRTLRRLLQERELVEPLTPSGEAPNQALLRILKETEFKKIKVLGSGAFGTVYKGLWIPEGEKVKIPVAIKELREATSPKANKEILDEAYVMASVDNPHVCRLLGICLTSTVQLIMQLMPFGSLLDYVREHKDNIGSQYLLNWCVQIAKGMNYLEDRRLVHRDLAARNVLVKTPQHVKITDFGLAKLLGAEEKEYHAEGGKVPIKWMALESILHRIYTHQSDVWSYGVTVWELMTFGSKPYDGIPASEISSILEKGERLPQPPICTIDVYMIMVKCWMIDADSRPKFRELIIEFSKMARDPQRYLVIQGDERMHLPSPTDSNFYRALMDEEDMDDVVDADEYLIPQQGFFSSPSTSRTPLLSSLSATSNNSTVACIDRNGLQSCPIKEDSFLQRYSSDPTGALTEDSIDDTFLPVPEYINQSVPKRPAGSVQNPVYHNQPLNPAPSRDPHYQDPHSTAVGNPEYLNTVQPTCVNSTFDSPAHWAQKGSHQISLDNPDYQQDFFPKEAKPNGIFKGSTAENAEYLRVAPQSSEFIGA

Compound: COc1cc(N2CCC(N3CCN(C)CC3)CC2)ccc1Nc1ncc(Cl)c(Nc2ccccc2P(C)(C)=O)n1 [Brigatinib, reference compound]
- AUC(0-t) ([1]; BALB/c nude, plasma): 32.8 µM·h
- half-life ([1]; BALB/c nude, plasma): 334 min
- concentration at 2 h ([1]; BALB/c nude, plasma, 2 h after administration): 5.18 µM
- Lung, 2 h ([1]; 2 h after administration): 10217 nmol/kg
- Tumor, 2 h ([1]; 2 h after administration): 5807 nmol/kg
- antitumor efficacy [2]: good antitumor efficacy

Compound: COc1cc(N2CCC3(CC2)CN(C)C3)c(C)cc1Nc1ncc(Cl)c(Nc2ccc3sccc3c2P(C)(C)=O)n1 [Compound 2]
- IC50 [3]: 0.613 nM
- IC50 (A431 cells (EGFR WT)): 811 nM
- IC50 [4]: 178 nM
- IC50 [5]: 68 nM

Compound: COc1cc(N2CCC(N3CCN(C)CC3)CC2)ccc1Nc1ncc(Cl)c(Nc2ccc3sccc3c2P(C)(C)=O)n1 [Compound 3]
- IC50 (A431 cells (EGFR WT)): 3240 nM
- IC50 [4]: 638 nM
- IC50 [5]: 187 nM

Compound: COc1cc(N2CCC3(CCN(C)CC3)CC2)c(Cl)cc1Nc1ncc(Cl)c(Nc2ccc3ccccc3c2P(C)(C)=O)n1 [Compound 4]
- IC50 (A431 cells (EGFR WT)): 3750 nM
- IC50 [4]: 556 nM
- IC50 [5]: 278 nM

Compound: COc1cc(N2CCC3(CC2)CN(C)C3)ccc1Nc1ncc(Cl)c(Nc2ccc3ccccc3c2P(C)(C)=O)n1 [Compound 5]
- IC50 [3]: 1.63 nM
- IC50 (A431 cells (EGFR WT)): 890 nM
- IC50 [4]: 313 nM
- IC50 [5]: 96 nM

Compound: COc1cc(N2CCC(N3CCN(C)CC3)CC2)ccc1Nc1ncc(Cl)c(Nc2ccc3ccccc3c2P(C)(C)=O)n1 [Compound 6]
- IC50 [3]: 2.54 nM
- IC50 (A431 cells (EGFR WT)): 997 nM
- IC50 [4]: 361 nM
- IC50 [5]: 187 nM

Compound: COc1cc(N2CCC3(CC2)CN(C)C3)c(C)cc1Nc1ncc(Cl)c(Nc2ccc3ccccc3c2P(C)(C)=O)n1 [Compound 9]
- IC50 [3]: 0.485 nM
- IC50 (A431 cells (EGFR WT)): 282 nM
- IC50 [4]: 149 nM
- IC50 [5]: 149 nM

Compound: COc1cc(N2CCC3(CC2)CN(C)C3)c(C)cc1Nc1ncc(Cl)c(Nc2ccc3cccnc3c2P(C)(C)=O)n1 [Compound 12]
- IC50 (A431 cells (EGFR WT)): 1260 nM
- IC50 [4]: 239 nM
- IC50 [5]: 203 nM

Compound: COc1cc(N2CCC3(CC2)CN(C)C3)c(C)cc1Nc1ncc(Cl)c(Nc2ccc3cnn(C)c3c2P(C)(C)=O)n1 [Compound 13]
- IC50 [3]: 5.79 nM
- IC50 (A431 cells (EGFR WT)): > 10000 nM
- IC50 [4]: 3620 nM
- IC50 [5]: 1720 nM

Compound: COc1cc(N2CCC3(CC2)CN(C)C3)c(C)cc1Nc1ncc(Br)c(Nc2ccc3nccnc3c2P(C)(C)=O)n1 [Compound 36]
- IC50 (A431 cells (EGFR WT)): 168 nM
- IC50 [4]: 45 nM
- IC50 [5]: 25 nM

Compound: COc1cc(N2CCC3(CC2)CN(CCN(C)C)C3)c(C)cc1Nc1cc(Nc2ccc3nccnc3c2P(C)(C)=O)c(Br)cn1 [Compound 37]
- IC50 (A431 cells (EGFR WT)): 357 nM
- IC50 [4]: 56 nM
- IC50 [5]: 94 nM

Compound: CCc1cc(Nc2ncc(Br)c(Nc3ccc4nccnc4c3P(C)(C)=O)n2)c(OC)cc1N1CCC2(CC1)CN(C)C2 [Compound 40]
- IC50 (A431 cells (EGFR WT)): 561 nM
- IC50 [4]: 31 nM
- IC50 [5]: 24 nM

Compound: O=C(Nc1nccs1)C(c1cc(F)ccc1O)N1Cc2ccccc2C1=O (stereo not drawn) [EAI045]
- tumor inhibition effect [6]: better tumor inhibition effect

Compound: COc1cc(N2CCC(N3CCN(C)CC3)CC2)ccc1Nc1ncc(Cl)c(Nc2ccc3nccnc3c2P(C)(C)=O)n1 [Example 59]
- IC50 (A431 cells (EGFR WT)): 534 nM
- IC50 [4]: 54.3 nM
- IC50 [5]: 534 nM

Compound: COc1cc(N2CCC(N3CCN(C)CC3)CC2)ccc1Nc1ncc(Br)c(Nc2ccc3nccnc3c2P(C)(C)=O)n1 [Example 60]
- IC50 (A431 cells (EGFR WT)): 271 nM
- IC50 [4]: 47.6 nM
- IC50 [5]: 271 nM

Compound: COc1cc(N2CCC(N3CCN(C)CC3)CC2)c(C)cc1Nc1ncc(Cl)c(Nc2ccc3nccnc3c2P(C)(C)=O)n1 [Example 61]
- IC50 (A431 cells (EGFR WT)): 58 nM
- IC50 [4]: 32.2 nM
- IC50 [5]: 58 nM
